# Results: patent US8901126B2, “Substituted imidazo[1,5-A]quinoxalin-4-ones are useful for preventing or treating storage dysfunction, voiding dysfunction and bladder/urethral diseases” (priority 2010, dated 2014)
# Counter-ions that a name gives are not always drawn.
# Assays:
# [1] = tested on: urethra relaxation response; assay: Simultaneous measurement model for rat bladder contraction/urethra relaxation responses; format: in vivo; details: female SD rat, urethane anesthesia, 1 mg/kg, intravenously or intraduodenally
# Text: That is, a female Sprague-Dawley (SD) rat (Charles River Laboratories Japan, Inc.) was anesthetized with urethane, and the bladder was exposed by a midline incision in the lower abdomen. A double lumen cannula (a cannula having a dual structure by PE190 and PE50) from the bladder apex was inserted into the bladder, and the bladder apex and the cannula were fixed by sutures at a point where the tip reached the proximal urethra. While infusing physiological saline into the urethra through the outer cannula, the urethral inner pressure was measured by a pressure transducer through the inner cannula with a saline solution infused into the urethra through the outer cannula. On the other hand, a single cannula (PE50) was inserted into the bladder from the bladder apex and placed therein. The inner pressure of the bladder was measured through this cannula. After a postoperative stabilization period had passed, physiological saline was infused into the bladder through the cannula of the bladder apex to cause a bladder contraction reaction, and thus cause a urethra relaxation response accompanying the bladder contraction reflex. The test substance was administered intravenously or intraduodenally.
# PDE9 = target: T1, PDE9 (Homo sapiens, UniProt O76083); assay: PDE9-inhibiting activity (SPA, 3H-cGMP degradation); format: biochemical; details: PDE9-inhibiting activity (IC50 values), cGMP 1 μM, 30° C.
# T1 construct: made in house
# Protocol: The PDE9 used in the present experiment was expressed/purified by the method as in, for example, Guipponi et al., and Fisher et., al. (Fisher, D. A., et al., J. Biol. Chem., 273: pp. 15559-15564 (1998), Guipponi, M., et al., Hum. Genet., 103: pp. 386-392 (1998)).
# (2) Evaluation of PDE9-Inhibiting Activity
# The PDE9-inhibiting activity was measured by the following method. That is, to a buffer solution containing tris(hydroxymethyl)aminomethane-hydrochloric acid (40 mM, pH 8.0), magnesium chloride (5 mM), and 2-mercaptoethanol (4 mM) were added cGMP (1 μM) and ^3H-cGMP (0.33 μCi/ml) to give a substrate buffer solution. A test substance solution and an enzyme solution which had been adjusted to an optimal concentration were added thereto to perform a reaction at 30° C. The enzyme reaction was stopped by the addition of Scintillation Proximity Assay (SPA) Beads (Perkin Elmer, USA) containing 5 mM 3-isobutyl-1-methylxanthine (IBMX). For the enzyme activity, the amount of 5′-GMP, which is a reaction degradation product bound to SPA beads, was measured with a TopCount microplate reader (Hewlett Packard, USA).
# The inhibitory rate was calculated by taking the radioactivity of the control containing no test substance as (A), taking the radioactivity of the blank containing no enzyme as (B), and taking the radioactivity of the test substance as (C), and using the following equation. Inhibitory rate=100−{(C)−(B)/(A)−(B)}×100(%)
# T1 sequence (O76083 whole entry): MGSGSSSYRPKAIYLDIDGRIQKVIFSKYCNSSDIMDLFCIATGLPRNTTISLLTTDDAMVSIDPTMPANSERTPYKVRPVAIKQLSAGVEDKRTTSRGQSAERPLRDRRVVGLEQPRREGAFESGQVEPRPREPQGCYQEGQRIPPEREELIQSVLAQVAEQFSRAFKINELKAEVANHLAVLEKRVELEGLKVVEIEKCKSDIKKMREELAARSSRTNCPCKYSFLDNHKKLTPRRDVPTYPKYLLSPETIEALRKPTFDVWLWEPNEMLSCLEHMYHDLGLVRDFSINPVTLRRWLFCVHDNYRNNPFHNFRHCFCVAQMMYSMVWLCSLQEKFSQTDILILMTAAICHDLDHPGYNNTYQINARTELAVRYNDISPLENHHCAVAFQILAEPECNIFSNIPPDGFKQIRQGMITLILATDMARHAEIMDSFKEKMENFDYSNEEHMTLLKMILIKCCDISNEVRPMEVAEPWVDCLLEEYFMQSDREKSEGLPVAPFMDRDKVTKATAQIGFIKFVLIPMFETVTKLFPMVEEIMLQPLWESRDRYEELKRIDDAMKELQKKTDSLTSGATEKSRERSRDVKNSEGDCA
Structure (SMILES),ratio with increased urethra relaxation time during voiding (increase relative to the solvent administration group (vs vehicle)) [1] [%],IC50 (PDE9) [nM],melting point
"COCc1cc2c(cc1C(=O)N1CCc3cc(C)cnc31)[nH]c(=O)c1cnc(C3CCOC3)n12 (single isomer, unassigned) [Example 25(b)]",131,14,–
"COc1cc2c(cn1)N(C(=O)c1cc3[nH]c(=O)c4cnc(C5CCOC5)n4c3cc1C)CC2 (single isomer, unassigned) [Example 27(b)]",181,26,–
"Cc1cc2c(cc1C(=O)N1CCc3cc(Br)cnc31)[nH]c(=O)c1cnc(C3CCOC3)n12 (single isomer, unassigned) [Example 29(b)]",149,5.6,–
"Cc1cc2c(cc1C(=O)N1CCc3cc(F)c(F)cc31)[nH]c(=O)c1cnc(C3CCOC3)n12.Cl (single isomer, unassigned) [Example 30(b)]",147,5.8,–
"COCc1cc2c(cc1C(=O)N1CCc3cc(Br)cnc31)[nH]c(=O)c1cnc(C3CCOC3)n12 (single isomer, unassigned) [Example 43(b)]",138,2.8,–
"COCc1cc2c(cc1C(=O)N1Cc3c(F)ccc(F)c3C1)[nH]c(=O)c1cnc(C3CCOC3)n12.Cl (single isomer, unassigned) [Example 45(b)]",141,8.9,–
"COCc1cc2c(cc1C(=O)N1CCc3cc(OC)ncc31)[nH]c(=O)c1cnc(C3CCOC3)n12 (single isomer, unassigned; (+)) [Example 4(b), (+)-7-[(5-methoxy-2,3-dihydro-1H-pyrrolo[2,3-c]pyridin-1-yl)carbonyl]-8-(methoxymethyl)-1-(tetrahydrofuran-3-yl)imidazo[1,5-a]quinoxalin-4(5H)-one dihydrochloride]",167,11,–
COc1cc2c(cn1)N(C(=O)c1cc3[nH]c(=O)c4cnc(C5CCOC5)n4c3cc1C)CC2 (stereo not drawn) [Example 27],–,84,241 to 243 °C
Cc1cc2c(cc1C(=O)N1CC(C)c3cc(Cl)ccc31)[nH]c(=O)c1cnc(C3CCOCC3)n12.Cl (stereo not drawn) [Example 31],149,1.4,221 to 224 °C
Cc1cc2c(cc1C(=O)N1CC(C)c3cc(Cl)ccc31)[nH]c(=O)c1nnc(C3CCOCC3)n12.Cl (stereo not drawn) [Example 32],–,2.6,231 to 234 °C
COCc1cc2c(cc1C(=O)N1CCc3cc(Br)cnc31)[nH]c(=O)c1nnc(C3CCC3)n12 [Example 41],–,18,174 to 176 °C
COCc1cc2c(cc1C(=O)N1Cc3cccc(F)c3C1)[nH]c(=O)c1cnc(C3CCOC3)n12 (stereo not drawn) [Example 42],–,13,154 to 156 °C
COCc1cc2c(cc1C(=O)N1CCc3cc(Br)cnc31)[nH]c(=O)c1nnc(CC3CC3)n12 [Example 44],–,6.1,168 to 170 °C
COCc1cc2c(cc1C(=O)N1CCc3cc(Cl)ccc31)[nH]c(=O)c1nnc(C3CCC3)n12.Cl [Example 46],–,13,170 to 172 °C
Cc1cc2c(cc1C(=O)N1CCc3cc(Br)cnc31)[nH]c(=O)c1cnc(C3CCCOC3)n12 (stereo not drawn) [Example 47],–,2.1,300 to 305 °C (dec.)
O=C(c1cc2[nH]c(=O)c3cnc(C4CCOCC4)n3c2cc1Cl)N1CCc2cc(Br)cnc21 [Example 48],–,0.8,270 to 275 °C (dec.)
